Earlier results, collected in patent US9738620B2, “Trientine prodrugs, pharmaceutical compositions thereof, and methods of use” (priority 2015, dated 2017).

Details: Lu., Molecular Cancer Therapeutics. 2010, 9 (9), 2458-67

oral bioavailability: 8-30%
Compound: NCCNCCNCCN [Trientine]
